Key:
[1] = 50 mg or 200 mg after cycling exercise, fourteen healthy male subjects; cited from earlier work
[2] = Study 2; effects typically experienced with high amounts of caffeine
Experimental: In this first study, twenty-one subjects (20 male, 1 female), all healthy and between the ages of 20 and 35 years were given the pre-workout supplement in capsule form to be taken 30 to 45 minutes before exercise on an empty stomach in place of any regularly consumed pre-workout product prior to the next exercise session. Subjects were instructed to maintain normal diet and activity. Subjects were surveyed for ratings of perceived effects on energy levels and mental focus. Subjects were also advised to supply general comments regarding the supplement in terms of negative side effects, comparison to other products, overall satisfaction and effectiveness.

[3] = absorbed in the small intestine; cited from earlier work
[4] = 250 mg caffeine, 200 mg L-theanine, or both; cited from earlier work

SMILES	post-exercise mental regeneration [1]	jitters and energy crash [2]	time of peak plasma levels [3] [min]	effect on alertness, anxiety and blood pressure [4]
CCNC(=O)CC[C@H](N)C(=O)O [L-theanine, γ-N-ethylglutamine]	accelerated post-exercise mental regeneration	prevented jitters and the energy crash	≤ 30	only acted to counter the increase in blood pressure
Cn1c(=O)c2c(ncn2C)n(C)c1=O [caffeine, 1,3,7-trimethylxanthine]	–	–	–	increased alertness, anxiety, and blood pressure

Reference: patent US20130018061A1, “Method for Improving Exercise and Recovery From Exercise” (priority 2011, published 2013)
